# Measured values reported in PMC3701070 (PLoS ONE, 2013).
# Read-outs that look alike come from different tables or passages of the source.
# Assays:
# [1] = system: Human Foreskin Fibroblasts (HFF, wild-type BRAF); assay: Cell cycle analysis; assay type: cell-based; conditions: concentrations up to 10 µM
# Description: Cells were permeabilized, DNA was stained with propidium iodide, and samples were read on a BD LSRII flow cytometer. Data were analyzed using the cell cycle platform of FlowJo v6.1.1 software.
# Cell cycle phases are shown in stacked format as a percentage of the total population. […] (PPTX) Click here for additional data file.
# HCT-116 = assay: Cell growth assay; assay type: cell-based, human; conditions: HCT-116, RAF WT, KRAS(G13D), 3-day
# Description: (§1) Growth was measured with CellTiter-Glo® (Promega) reagent per the manufacturer’s protocol, using a PerkinElmer EnVision™ reader at t = 0 and 72 h. IC50 values for cell growth inhibition (gIC50) were determined.
# (§2) (PDF) Click here for additional data file.
# [2] = Pharmacokinetic analysis in tumor-bearing mice; conditions: 30 mg/kg oral once daily, blood
# Description: Compound concentrations were determined from flash-frozen hemolyzed blood samples (blood:water ratio of 1∶1) or tumor homogenates (tumor:water ratio of 1∶4) by HPLC/MS-MS analysis.
# BRAF [3] = molecular target: T1, BRAF (Canis lupus familiaris, UniProt A0A8I3SCX1); assay: BRAF/CRAF-activated MEK ATPase coupled assay; assay type: biochemical; conditions: Enzyme BRAF, Dog
# T1 construct: Full-length BRAF genes were tagged with 6×His-SBP; 6xHis-SBP; made in house; host or cells: HEK293F
# Description: (§3) Various BRAF orthologs (human, cynomolgus monkey, dog, rat) were cloned in-house. […] Full-length BRAF genes were tagged with 6×His-SBP and transiently transfected in a HEK293F expression system (Invitrogen K9000-01 protocol). Transfected cells were incubated at 37°C, 5% CO2 on a shaker at 80 r.p.m. for 48 h and harvested by centrifugation. BRAF proteins were purified by UltraLink®-immobilized Streptavidin affinity and Superdex™ 200 size exclusion chromatography.
# (§4) N-terminal GST-tagged MEK1 was expressed in BL21[DE3]/pRR692 cells and purified by Glutathione Sepharose™ 4FF and Q-Sepharose™ chromatography. The GST tag was cleaved with TEV protease and MEK1 was purified on a Superdex™ 200 column.
# BRAF [4] = molecular target: T2, BRAF (Rattus norvegicus, UniProt A0A8I6AFV6); assay: BRAF/CRAF-activated MEK ATPase coupled assay; assay type: biochemical; conditions: Enzyme BRAF
# T2 construct: Full-length BRAF genes were tagged with 6×His-SBP; 6xHis-SBP; made in house; host or cells: HEK293F
# Description: as §3, §4
# BRAF [5] = molecular target: BRAF (Macaca fascicularis, UniProt A0A7N9IA21); assay: BRAF/CRAF-activated MEK ATPase coupled assay; assay type: biochemical; conditions: Enzyme BRAF, Cyno
# Description: as §3, §4
# A375 = assay: Cell growth assay; assay type: cell-based; conditions: Homo sapiens, A-375, 72 h; A375, BRAF(V600E), RAS WT, 3-day; read-out: gIC50
# Description: as §1, §2
# Supplementary file pone.0067583.s006.pdf: Table S3 Enzymatic and cellular activity of tool inhibitors used in the rat skin lesion formation study. Activity of GSK2366297A (BRAF tool inhibitor) and GSK2091975 (MEK tool inhibitor, active form of prodrug GSK2091976) were measured against their respective enzyme targets as described in the Materials and Methods section. Cellular activity was determined for each by inhibition of ERK phosphorylation in SK-MEL-28 cells and growth of A375 cells, both of which express BRAF^V600E. (PDF) Click here for additional data file.
# [6] = system: A375P tumors (BRAF^V600E)
# Description: Cells were implanted subcutaneously in female CD1 nu/nu mice and grown to form tumors. […] Tumor volumes were estimated twice weekly from two-dimensional caliper measurements using the prolate ellipsoid equation [drawing 1] , where v = volume (mm^3), l = length (mm), and w = width (mm), and reported as means for n of 7 or 8 mice per group. Tumor growth inhibition represents the percentage volume differential between treated and control tumors at the time when vehicle-treated tumors exceeded a volume of 1 000 mm^3. Partial regression is defined as a 50% decrease from an individual tumor's starting volume for at least 1 week (three consecutive measurements). […] All efforts were made to minimize suffering and mice were euthanized by carbon dioxide asphyxiation if at least one death occurred per treatment group, if an animal appeared moribund or in distress, or if the tumor became ulcerated.
# Treatment continued until the mean tumor volume of each group reached 1 200 mm^3 or one death occurred. Mean tumor volumes are plotted with their standard error mean and complete (CR) or partial (PR) regressions are indicated for each group of n = 8 mice after 14 days of treatment.
# CaOV3 = assay: Cell growth assay; assay type: cell-based; conditions: Homo sapiens, Caov-3, 72 h; CaOV3, RAF WT, RAS WT, 3-day; read-out: gIC50
# Description: as §1, §2
# KYSE-30 = assay: Cell growth assay; assay type: cell-based; conditions: Homo sapiens, 72 h; KYSE-30, RAF WT, RAS WT, 3-day; read-out: gIC50
# Description: as §1, §2
# SNU-16 = assay: Cell growth assay; assay type: cell-based; conditions: Homo sapiens, 72 h; SNU-16, RAF WT, RAS WT, 3-day; read-out: gIC50
# Description: as §1, §2
# CRO-AP2 = assay: Cell growth assay; assay type: cell-based; conditions: Homo sapiens, 72 h; CRO-AP2, RAF WT, RAS WT, 3-day; read-out: gIC50
# Description: as §1, §2
# NCI-H292 = assay: Cell growth assay; assay type: cell-based; conditions: Homo sapiens, 72 h; NCI-H292, RAF WT, RAS WT, 3-day; read-out: gIC50
# Description: as §1, §2
# SNB-19 = assay: Cell growth assay; assay type: cell-based; conditions: Homo sapiens, 72 h; SNB-19, RAF WT, RAS WT, 3-day; read-out: gIC50
# Description: as §1, §2
# HPAF-II = assay: Cell growth assay; assay type: cell-based; conditions: Homo sapiens, 72 h, RAF WT, RAS WT, 3-day, read-out: gIC50
# Description: as §1, §2
# COR-L23 = assay: Cell growth assay; assay type: cell-based; conditions: Homo sapiens, 72 h; COR-L23, RAF WT, RAS WT, 3-day; read-out: gIC50
# Description: as §1, §2
# Hs746.T = assay: Cell growth assay; assay type: cell-based; conditions: Homo sapiens, Hs746T, 72 h, RAF WT, RAS WT, 3-day, read-out: gIC50
# Description: as §1, §2
# NCI-H146 = assay: Cell growth assay; assay type: cell-based; conditions: Homo sapiens, 72 h; NCI-H146, RAF WT, RAS WT, 3-day; read-out: gIC50
# Description: as §1, §2
# SK-MES-1 = assay: Cell growth assay; assay type: cell-based; conditions: Homo sapiens, 72 h; SK-MES-1, RAF WT, RAS WT, 3-day; read-out: gIC50
# Description: as §1, §2
# Hep3B = assay: Cell growth assay; assay type: cell-based; conditions: Homo sapiens, 72 h, RAF WT, RAS WT, 3-day, read-out: gIC50
# Description: as §1, §2
# MES-SA = assay: Cell growth assay; assay type: cell-based; conditions: Homo sapiens, 72 h, RAF WT, RAS WT, 3-day, read-out: gIC50
# Description: as §1, §2
# NCI-H69 = assay: Cell growth assay; assay type: cell-based; conditions: Homo sapiens, 72 h; NCI-H69, RAF WT, RAS WT, 3-day; read-out: gIC50
# Description: as §1, §2
# SK-N-DZ(note) = assay: Cell growth assay; assay type: cell-based; conditions: Homo sapiens, 72 h, RAF WT, RAS WT, 3-day, read-out: gIC50
# Description: as §1, §2
# CESS = assay: Cell growth assay; assay type: cell-based; conditions: Homo sapiens, 72 h, RAF WT, RAS WT, 3-day, read-out: gIC50
# Description: as §1, §2
# NCI-H508 = assay: Cell growth assay; assay type: cell-based; conditions: Homo sapiens, 72 h; NCI-H508, BRAF(G596R), RAS WT, 3-day; read-out: gIC50
# Description: as §1, §2
# Chain of BRAF (Macaca fascicularis, UniProt A0A7N9IA21) (A0A7N9IA21 entry or part of it): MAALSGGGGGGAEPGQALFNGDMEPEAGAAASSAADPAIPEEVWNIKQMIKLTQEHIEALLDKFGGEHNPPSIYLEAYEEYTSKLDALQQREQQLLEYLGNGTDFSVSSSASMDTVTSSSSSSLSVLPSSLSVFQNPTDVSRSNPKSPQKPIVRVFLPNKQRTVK
# T2 sequence (A0A8I6AFV6 1-804): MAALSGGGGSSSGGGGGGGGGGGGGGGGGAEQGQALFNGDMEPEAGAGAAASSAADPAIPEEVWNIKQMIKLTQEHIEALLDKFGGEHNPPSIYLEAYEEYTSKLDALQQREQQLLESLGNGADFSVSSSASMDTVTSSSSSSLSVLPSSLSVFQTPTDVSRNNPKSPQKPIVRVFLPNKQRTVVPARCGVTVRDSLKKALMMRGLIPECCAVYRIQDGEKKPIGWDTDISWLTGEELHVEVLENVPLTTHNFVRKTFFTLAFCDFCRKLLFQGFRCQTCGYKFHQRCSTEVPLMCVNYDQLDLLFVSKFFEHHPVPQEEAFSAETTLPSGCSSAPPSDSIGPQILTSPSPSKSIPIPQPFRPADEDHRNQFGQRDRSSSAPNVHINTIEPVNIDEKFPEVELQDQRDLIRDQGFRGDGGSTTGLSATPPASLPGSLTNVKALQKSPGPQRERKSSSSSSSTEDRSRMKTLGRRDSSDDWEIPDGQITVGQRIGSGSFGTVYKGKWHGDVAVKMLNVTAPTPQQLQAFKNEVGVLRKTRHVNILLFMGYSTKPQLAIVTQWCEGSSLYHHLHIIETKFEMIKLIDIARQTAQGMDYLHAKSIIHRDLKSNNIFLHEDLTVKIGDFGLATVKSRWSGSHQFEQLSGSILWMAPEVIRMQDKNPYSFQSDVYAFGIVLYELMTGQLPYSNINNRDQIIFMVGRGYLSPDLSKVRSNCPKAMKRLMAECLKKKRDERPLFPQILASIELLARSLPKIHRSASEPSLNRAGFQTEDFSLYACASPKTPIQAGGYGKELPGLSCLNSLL
# T1 sequence (A0A8I3SCX1 1-803): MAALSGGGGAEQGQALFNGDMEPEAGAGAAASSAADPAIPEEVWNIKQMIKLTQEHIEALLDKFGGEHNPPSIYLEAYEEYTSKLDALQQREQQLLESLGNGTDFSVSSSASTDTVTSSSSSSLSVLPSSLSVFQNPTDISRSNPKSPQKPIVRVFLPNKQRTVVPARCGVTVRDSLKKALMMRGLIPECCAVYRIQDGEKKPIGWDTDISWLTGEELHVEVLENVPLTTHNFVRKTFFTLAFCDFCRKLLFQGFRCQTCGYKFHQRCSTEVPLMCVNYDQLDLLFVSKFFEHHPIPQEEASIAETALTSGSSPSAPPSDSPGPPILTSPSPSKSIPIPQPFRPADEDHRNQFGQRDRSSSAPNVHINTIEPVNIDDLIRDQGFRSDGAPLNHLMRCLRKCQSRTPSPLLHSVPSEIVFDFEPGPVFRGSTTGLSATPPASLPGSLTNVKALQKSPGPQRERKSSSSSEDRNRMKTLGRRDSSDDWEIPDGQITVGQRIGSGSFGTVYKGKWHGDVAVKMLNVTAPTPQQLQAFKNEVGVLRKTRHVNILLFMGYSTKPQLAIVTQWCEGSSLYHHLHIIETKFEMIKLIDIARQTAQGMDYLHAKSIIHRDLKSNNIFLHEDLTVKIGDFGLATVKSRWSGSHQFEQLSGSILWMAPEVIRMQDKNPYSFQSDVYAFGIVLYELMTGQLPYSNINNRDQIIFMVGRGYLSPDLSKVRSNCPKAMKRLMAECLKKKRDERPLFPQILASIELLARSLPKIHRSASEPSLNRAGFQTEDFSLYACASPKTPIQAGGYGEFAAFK
structure (smiles),measurement,setting,value
CC(C)(C)c1nc(-c2cccc(NS(=O)(=O)c3c(F)cccc3F)c2F)c(-c2ccnc(N)n2)s1 [dabrafenib],effect on cell cycle,[1],unaffected
same,gIC50,HCT-116,insensitive
same,IC50,"HCT-116; Homo sapiens, 72 h, read-out: gIC50",> 10 µM
same,oral bioavailability,[2],orally bioavailable
same,IC50,BRAF [3],0.004 µM
same,IC50,BRAF [4],0.004 µM
same,IC50,BRAF [5]; read-out: IC50,0.004 µM
same,IC50,BRAF [5]; read-out: pIC50 +/- std. dev. (converted),0.00398 µM
same,IC50,A375,0.004 µM
same,period for which tumor growth inhibition was observed,[6]; 30 mg/kg for 33 days,14 days
same,period for which tumor growth inhibition was observed,[6]; 300 mg/kg for 43 days,20 days
same,IC50,CaOV3,> 10 µM
same,IC50,KYSE-30,> 10 µM
same,IC50,SNU-16,> 10 µM
same,IC50,CRO-AP2,> 10 µM
same,IC50,NCI-H292,> 10 µM
same,IC50,SNB-19,> 10 µM
same,IC50,HPAF-II,> 10 µM
same,IC50,COR-L23,> 10 µM
same,IC50,Hs746.T,> 10 µM
same,IC50,NCI-H146,> 10 µM
same,IC50,SK-MES-1,0.329 µM
same,IC50,Hep3B,> 10 µM
same,IC50,MES-SA,6.99 µM
same,IC50,NCI-H69,> 10 µM
same,IC50,SK-N-DZ(note),> 10 µM
same,IC50,CESS,0.497 µM
same,IC50,NCI-H508,> 10 µM
